Target: Hepatocyte growth factor receptor (Homo sapiens, UniProt P08581)
Experiment: Inhibition of human recombinant MET

Sequence of Hepatocyte growth factor receptor (P08581 whole entry): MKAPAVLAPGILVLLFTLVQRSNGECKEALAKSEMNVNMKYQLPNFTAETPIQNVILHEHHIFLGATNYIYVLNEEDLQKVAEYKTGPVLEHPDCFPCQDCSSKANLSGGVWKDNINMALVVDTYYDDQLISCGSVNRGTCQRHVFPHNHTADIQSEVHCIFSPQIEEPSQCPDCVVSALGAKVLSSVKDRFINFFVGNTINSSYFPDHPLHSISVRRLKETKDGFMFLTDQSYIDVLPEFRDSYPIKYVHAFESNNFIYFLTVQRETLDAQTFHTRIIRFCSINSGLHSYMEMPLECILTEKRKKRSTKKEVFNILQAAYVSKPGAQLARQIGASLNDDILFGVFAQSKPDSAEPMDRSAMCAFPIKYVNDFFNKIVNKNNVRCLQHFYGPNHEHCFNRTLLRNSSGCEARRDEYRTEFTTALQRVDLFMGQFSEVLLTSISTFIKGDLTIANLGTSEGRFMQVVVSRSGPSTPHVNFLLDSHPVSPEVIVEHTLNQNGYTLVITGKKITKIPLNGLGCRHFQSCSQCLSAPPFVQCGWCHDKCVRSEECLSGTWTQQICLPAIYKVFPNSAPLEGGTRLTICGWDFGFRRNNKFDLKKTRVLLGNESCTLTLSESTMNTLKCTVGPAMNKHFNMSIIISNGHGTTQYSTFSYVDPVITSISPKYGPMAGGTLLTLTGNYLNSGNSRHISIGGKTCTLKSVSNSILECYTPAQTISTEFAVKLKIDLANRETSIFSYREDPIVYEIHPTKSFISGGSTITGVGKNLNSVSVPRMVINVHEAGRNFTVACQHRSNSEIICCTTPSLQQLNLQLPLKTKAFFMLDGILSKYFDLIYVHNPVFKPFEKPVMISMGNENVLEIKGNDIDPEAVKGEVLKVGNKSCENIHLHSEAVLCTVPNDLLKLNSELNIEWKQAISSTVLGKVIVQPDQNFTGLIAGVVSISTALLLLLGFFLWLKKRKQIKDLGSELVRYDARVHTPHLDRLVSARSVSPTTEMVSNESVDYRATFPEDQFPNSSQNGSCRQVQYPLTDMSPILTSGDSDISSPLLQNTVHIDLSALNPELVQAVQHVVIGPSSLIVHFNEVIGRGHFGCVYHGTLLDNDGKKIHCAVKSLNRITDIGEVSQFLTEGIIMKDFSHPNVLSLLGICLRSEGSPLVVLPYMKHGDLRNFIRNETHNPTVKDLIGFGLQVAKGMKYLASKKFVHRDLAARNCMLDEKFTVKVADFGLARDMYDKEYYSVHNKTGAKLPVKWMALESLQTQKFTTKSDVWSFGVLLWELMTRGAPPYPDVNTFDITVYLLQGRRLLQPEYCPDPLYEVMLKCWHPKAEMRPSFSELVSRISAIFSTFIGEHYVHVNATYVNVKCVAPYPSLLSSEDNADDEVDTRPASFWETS

Compound `COc1cc(C2=C(c3cn(COC(C)(C)C)c4ccccc34)CNC2=O)cc(OC)c1OC` has an IC50 of 29 µM.
